Earlier results on two compounds are cited in patent US7279573B2, “Amide derivatives” (Kaken Pharmaceutical Co., Ltd., priority 1997, dated 2007).

For series [1] the following is noted: human, in vivo.
Another series relates to growth hormone releasing. The settings on record: control compounds for pharmacophore development.

Consider GHRP-6, for which the oral bioavailability in series [1] is given as 0.3%. For `CC(C)(N)CC(=O)N[C@H]1CCc2ccccc2N(Cc2ccc(-c3ccccc3-c3nn[nH]n3)cc2)C1=O` [L-692,428], the “growth hormone releasing activity (active/inactive)” value with growth hormone releasing is “inactive”.
